# According to patent EP4813381A1, “PHARMACEUTICAL USE OF GUAIANE SESQUITERPENE DERIVATIVE” (Nanjing University Of Chinese Medicine, priority 2023, dated 2025):
# Columns and labels:
# [1] = tested on: renal injury markers (Ngal, Havcr1), inflammatory cytokines (TNF, IL-6, IL-1), fibrosis-related factors (α-Sma, Col1a1, Tgfb1); assay: Folic acid acute kidney injury model in mice: Q-PCR of kidney tissue; type: in vivo, C57BL/6 mice; parameters: Tnf / Il1 / Il6: unit not given here; conditions: kidney mRNA, acute model (FA)
# [2] = tested on: Rat mast cells (RBL-2H3); assay: Mast cell degranulation test (anti-DNP IgE / DNP-HSA); type: cell-based; conditions: RBL-2H3, IgE+HSA, 4 h
# Description: Rat mast cells (RBL-2H3) were cultured routinely in DMEM medium containing 10% FBS within a 5% CO2 incubator. Upon reaching 70-80% confluence, cells were uniformly seeded at a density of 1 × 10^5 cells/mL into 6-well plates (2 mL per well), divided into the following groups: Normal, IgE+HSA, Compound 1 (0.01, 0.1, 1, 10 µM). Mast cells were sensitized with 500 µg/L anti-DNP IgE for 12 h. washed with PBS, and cultured for an additional 12 h with 100 µg/L DNP-HSA. Compound 1 at the specified concentrations was then added. […]
# [3] = tested on: Th2-related factors Il4, Il13, Il31 and inflammatory factors Tslp, Tnf, Il1; assay: MC903-induced ear atopic dermatitis mouse model, Compound 1 ointment: Q-PCR of ear; type: in vivo; parameters: unit not given here; conditions: ear mRNA, AD mice
# Description: Except for the Normal group, all other groups underwent AD modeling: 20 µL of MC903 solution (also known as calcipotriol, purchased from Shanghai Yuanye Biotechnology Co., Ltd., used for inducing atopic models) was applied to each mouse's ears once daily for 14 consecutive days to induce the atopic dermatitis model. […] Measure ear thickness changes every 2 days using an electronic caliper before modeling and after treatment initiation.
# [4] = tested on: MC903-induced atopic dermatitis (AD); assay: MC903-induced AD model on the dorsum of mice, Compound 1 ointment: skin thickness and dermatitis score; type: in vivo; parameters: Skin thickness: unit not given here; conditions: for inhibition rate (dorsal skin thickness): final day; for Dermatitis Score: back, score max 12; for Skin thickness: dorsal region, AD mice
# Description: Weigh white petrolatum, light liquid paraffin, glyceryl monostearate, ethylparaben, and cetyl alcohol. Heat to 65 °C while stirring until dissolved. Slowly add the dissolved active pharmaceutical ingredient (API) while continuing to stir until uniformly mixed. Set aside. • (2) Aqueous Phase Preparation: […] Slowly add the aqueous phase to the oil phase while maintaining 65 °C, homogenize, and continue stirring for 30 min; • (4) Cooling: Stop heating, continue stirring, gradually reduce to room temperature, cool to form an ointment, and fill containers. […] Dissolve these substances in a small amount of propylene glycol, then place the resulting solution into the aforementioned pre-cooled blank ointment base. […] Establishment of the AD Model on the Dorsum of Mice and Drug Administration: […] Except for the Normal group, all other groups underwent AD modeling: 48 hours prior to the experiment, hair on the dorsal neck region was meticulously removed using clippers and depilatory cream. […] Model and control group mice received daily application of blank ointment. Twenty-four hours after completing the 14-day modeling period, photographs of skin lesions were taken, and skin lesion and blood samples were collected. Skin Lesion Severity Score: […] Statistical analysis was performed on the data.
# [5] = tested on: fibrosis-related factors (Acta2, Col1a1, Tgfb1); assay: CCl4 acute liver injury model in mice: Q-PCR of fibrosis-related factors in liver; type: in vivo, C57BL/6 mice; conditions: liver mRNA
# Description: They were acclimated for 7 days before use in experiments. • Experimental Methods: Establishment of Acute Liver Injury Model in Mice and Group-Specific Drug Administration • Mice were randomly assigned to groups. One group was arbitrarily designated as the normal group, while the remaining groups served as model group, Compound 1 group, Hydrochloride 20 group, Fumarate 21 group, and Silibinin group, with 6 mice per group. Except for the normal group receiving 10 mL olive oil/kg via injection, all other mice received 0.5 mL CCl4 + 9.5 mL olive oil/kg body weight via intraperitoneal injection, maintaining a CCl4 to olive oil ratio of 1:19. Starting from day 1 of modeling, Compound 1, Hydrochloride 20, and Fumarate 21 were administered orally for 3 consecutive days. […] The blood was allowed to stand at room temperature for 2 hours, then centrifuged at 3000 rpm for 20 minutes. Serum was aspirated, aliquoted, and stored at -70 °C for future use. After blood collection, euthanize mice by cervical dislocation. Perform laparotomy to remove the liver. Rinse twice with pre-chilled PBS. Excise the left hepatic lobe tissue. […] Store remaining tissue at -70 °C for future use. • Serum AST and ALT Assay: Use 10 µL of each sample for testing. Determine mouse serum AST and ALT levels according to the operating manual. Measure absorbance at 510 nm using an enzyme-linked immunosorbent assay (ELISA) reader. Calculate sample concentration (U/L) based on the standard curve.
# Q-PCR Analysis: Tissue total RNA extraction, cDNA synthesis, and PCR amplification methods are identical to Example 4. Additional primer information is as follows:
# Data Statistics: All data are expressed as means ± standard error of the mean (S.E.M.). Differences were analyzed for significance using analysis of variance (ANOVA). For groups showing significant differences in ANOVA, one-way ANOVA followed by Dunnett's test was performed to compare intergroup differences.
# [6] = tested on: inflammatory cytokines (IL-1β, IL-6); assay: LPS acute lung injury model in mice: ELISA of inflammatory cytokines; type: in vivo, C57BL/6 mice
# Description: The abdomen was opened, and the lungs were removed. They were rinsed twice with pre-chilled PBS. […] P values less than 0.05 were considered statistically significant.
# [7] = oral gavage 0.1 mg/kg for three days
# [8] = oral gavage 1 mg/kg for three days
structure (smiles),measurement,setting,value
C=C1C(=O)O[C@@H]2[C@@H]3[C@]4(CC[C@@]3(C)O)C[C@]4(C)CC[C@@H]12 [compound 1],Col1a1,[1]; oral 0.1 mg/kg,1.64±0.16
same,Havcr1,[1]; oral 0.1 mg/kg,175.10±17.63
same,Il1,[1]; oral 0.1 mg/kg,2.62±0.56
same,Il6,[1]; oral 0.1 mg/kg,8.02±0.77
same,Ngal,[1]; oral 0.1 mg/kg,30.52±5.05
same,Tgfb1,[1]; oral 0.1 mg/kg,1.96±0.17
same,Tnf,[1]; oral 0.1 mg/kg,2.89±0.59
same,α-Sma,[1]; oral 0.1 mg/kg,1.82±0.19
same,Col1a1,[1]; oral 1 mg/kg,1.32±0.15
same,Havcr1,[1]; oral 1 mg/kg,99.99±7.98
same,Il1,[1]; oral 1 mg/kg,1.72±0.45
same,Il6,[1]; oral 1 mg/kg,3.98±0.59
same,Ngal,[1]; oral 1 mg/kg,20.17±2.21
same,Tgfb1,[1]; oral 1 mg/kg,1.36±0.10
same,Tnf,[1]; oral 1 mg/kg,2.76±0.71
same,α-Sma,[1]; oral 1 mg/kg,1.42±0.11
same,β-Glucosaminidase,[2]; 0.01 µM,13.24 ± 0.08 ng/mL
same,β-Glucosaminidase,[2]; 0.1 µM,12.08 ± 0.12 ng/mL
same,β-Glucosaminidase,[2]; 1 µM,10.65 ± 0.05 ng/mL
same,β-Glucosaminidase,[2]; 10 µM,7.13 ± 0.07 ng/mL
same,Il1,[3]; 0.01% ointment,19.67 ± 5.26
same,Il4,[3]; 0.01% ointment,3.62 ±0.97
same,Il13,[3]; 0.01% ointment,3.30 ±0.47
same,Il31,[3]; 0.01% ointment,2.31 ±0.28
same,TSLP,[3]; 0.01% ointment,2.24 ±0.25
same,Tnf,[3]; 0.01% ointment,2.35 ±0.39
same,Il1,[3]; 0.1% ointment,9.89 ±3.44
same,Il4,[3]; 0.1% ointment,1.95 ±0.66
same,Il13,[3]; 0.1% ointment,2.85 ±0.48
same,Il31,[3]; 0.1% ointment,1.64 ±0.25
same,TSLP,[3]; 0.1% ointment,1.42 ±0.16
same,Tnf,[3]; 0.1% ointment,1.34 ±0.41
same,Il1,[3]; 1% ointment,5.69±1.12
same,Il4,[3]; 1% ointment,1.17±0.37
same,Il13,[3]; 1% ointment,1.56±0.20
same,Il31,[3]; 1% ointment,1.10±0.19
same,TSLP,[3]; 1% ointment,1.12±0.07
same,Tnf,[3]; 1% ointment,1.01±0.40
same,inhibition rate (dorsal skin thickness),[4]; 0.01% Compound 1 ointment,66%
same,inhibition rate (dorsal skin thickness),[4]; 0.1% Compound 1 ointment,72%
same,inhibition rate (dorsal skin thickness),[4]; 1% Compound 1 ointment,83%
same,Dermatitis Score,[4]; 0.01% ointment for 7 days,3.67±0.33
same,Dermatitis Score,[4]; 0.1% ointment for 7 days,2.50±0.22
same,Dermatitis Score,[4]; 1% ointment for 7 days,2.17±0.17
same,Skin thickness,[4]; 0.01% ointment,36.06±0.91
same,Skin thickness,[4]; 0.1% ointment,33.11±0.31
same,Skin thickness,[4]; 1% ointment,29.56±0.25
same,Acta2,[5]; oral 0.1 mg/kg,3.82±0.88
same,Col1a1,[5]; oral 0.1 mg/kg,2.28±0.80
same,Tgfb1,[5]; oral 0.1 mg/kg,1.39±0.58
same,Acta2,[5]; oral 1 mg/kg,2.34±0.16
same,Col1a1,[5]; oral 1 mg/kg,1.40±0.31
same,Tgfb1,[5]; oral 1 mg/kg,1.08±0.21
same,IL-1β,[6]; [7],1824.88 ± 32.73 pg/mL
same,IL-6,[6]; [7],2760.57 ± 288.02 pg/mL
same,IL-1β,[6]; [8],945.66 ± 36.71 pg/mL
same,IL-6,[6]; [8],1314.91 ± 231.08 pg/mL
